Data published in patent US20110091375A1, “USE OF THE COMBINATION COMPRISING TEMOZOLOMIDE AND TNF-ALPHA FOR TREATING GLIOBLASTOMA” (THE UNIVERSITY OF CHICAGO, priority 2004, published 2011).

System: U87 hindlimb xenografts
Test: Hindlimb glioma xenograft tumor growth
Assay type: in vivo, nude mice
Conditions: 30 days following treatment, second hindlimb study
Procedure: Hindlimb Studies: U87 hindlimb xenografts were established as described above in Example 4. In one study, mice were randomized into four groups as described in Example 4 and treatment initiated (day 0). Ad.Egr-TNF (2×10^8 pu) was injected IT twice a week for 4 total injections, and 5 mg/kg TMZ was given IP 3 h after each vector injection for a total of 20 mg/kg. The dose of TMZ used was approximately 0.2 LD10 and was chosen to have modest anti-tumor effect but to not be curative based on previous studies (Friedman, H. S. et al. (1995) Cancer Res 55(13):2853-2857) and data from our lab showing LD50 for IP TMZ to be approximately 500 mg/kg. Tumor volume was measured every 2-3 days. Fractional tumor volume (V/V0 where V0=volume on day 0) was calculated and plotted.
In a second study, tumor-bearing mice were randomized into eight treatment groups: untreated control (UTC); intratumoral (IT) Ad.Egr-TNF alone; intraperitoneal (IP) TMZ alone; IR alone; Ad.Egr-TNF and TMZ; Ad.Egr-TNF and IR; TMZ and IR; and Ad.Egr-TNF, TMZ and IR. Ad.Egr-TNF was administered IT at a dose of 2×10^8 pu/10 μL twice a week for 2 weeks, IP TMZ was given 3 h after vector at 5 mg/kg to a total of 20 mg/kg. […] Xenografts were measured twice a week using calipers, tumor volume was calculated, and fractional tumor volumes (V/V0 where V0=volume on day 0) were plotted.

Cn1nnc2c(C(N)=O)ncn2c1=O [TMZ, temozolomide]
animals with complete disappearance of palpable tumor: 1/10
